In PMC10531311, “Anti-Inflammatory Activities of 8-Benzylaminoxanthines Showing High Adenosine A2A and Dual A1/A2A Receptor Affinity” (International Journal of Molecular Sciences, 2023):
Where two headings read alike, the source gives them in different places.

What was measured:
[1] = PAMPA blood brain barrier permeability; type: in vitro ADME
Experimental: The ability of compounds, especially those intended to act in the CNS, to penetrate the blood-brain barrier (BBB) is an important property to consider in the initial stages of drug candidate screening. The PAMPA assay is a commonly used test to assess the passive permeation of the BBB [17]. In our study, caffeine was used as a highly permeable compound. […] After 5 h of incubation at room temperature, the results were analyzed by LC-MS, and the permeability coefficients (Pe) were calculated.
For permeability evaluation, a PAMPA Gentest™ pre-coated […] system, provided by Corning (Tewksbury, MA, USA), was used. The precise procedure was previously described. The permeability coefficient Pe was calculated based on the given equations. Concentrations of the tested compounds in the apical and basolateral wells were determined by LC/MS analysis using an internal standard.

[2] = target: other adenosine receptors; details: cited from earlier work
[3] = tested on: carrageenan-induced edema in mice; set-up: method as in PMID 25735490; details: 100 mg/kg ip, cited from earlier work
human adenosine A1R [4] = target: T1, human adenosine A1R (Homo sapiens, UniProt P30542); details: cited from earlier work; for Ki: human
T1 construct: expressed in transfected cells; host or cells: CHO cells
T1 sequence (P30542 1-326): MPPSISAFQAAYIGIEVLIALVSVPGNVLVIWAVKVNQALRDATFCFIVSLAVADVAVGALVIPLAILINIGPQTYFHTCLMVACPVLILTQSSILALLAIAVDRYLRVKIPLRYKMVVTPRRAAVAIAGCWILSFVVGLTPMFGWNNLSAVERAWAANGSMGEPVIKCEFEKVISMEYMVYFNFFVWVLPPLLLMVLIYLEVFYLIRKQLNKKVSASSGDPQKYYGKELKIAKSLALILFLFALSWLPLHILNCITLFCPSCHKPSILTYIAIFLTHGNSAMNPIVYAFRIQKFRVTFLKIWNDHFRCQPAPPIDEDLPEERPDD

human adenosine A2AR [5] = target: T2, human adenosine A2AR (Homo sapiens, UniProt P29274); details: cited from earlier work
T2 construct: expressed in transfected cells; host or cells: CHO cells
T2 sequence (P29274 whole entry): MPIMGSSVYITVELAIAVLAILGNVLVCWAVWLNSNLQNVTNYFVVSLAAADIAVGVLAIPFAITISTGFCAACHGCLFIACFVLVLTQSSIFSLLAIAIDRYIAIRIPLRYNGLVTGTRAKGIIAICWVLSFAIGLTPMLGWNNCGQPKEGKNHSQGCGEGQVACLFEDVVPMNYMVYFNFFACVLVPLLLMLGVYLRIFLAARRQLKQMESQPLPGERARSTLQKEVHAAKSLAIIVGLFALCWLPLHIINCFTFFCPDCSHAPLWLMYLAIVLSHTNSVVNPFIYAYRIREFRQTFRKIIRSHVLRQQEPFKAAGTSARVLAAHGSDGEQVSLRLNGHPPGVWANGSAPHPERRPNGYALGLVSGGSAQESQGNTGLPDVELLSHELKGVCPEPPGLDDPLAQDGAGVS

[6] = set-up: method as in PMID 21235574; details: animal studies; cited from earlier work
[7] = set-up: method as in PMID 30254599; details: LPD and ibotenate models; cited from earlier work
[8] = tested on: carrageenan-induced edema in rats; set-up: method as in PMID 32629282; details: 20 mg/kg ip; cited from earlier work
human adenosine A2BR [9] = target: T3, human adenosine A2BR (Homo sapiens, UniProt P29275); set-up: method as in PMID 32629282; details: cited from earlier work
T3 construct: expressed in transfected cells; host or cells: CHO cells
T3 sequence (P29275 1-332): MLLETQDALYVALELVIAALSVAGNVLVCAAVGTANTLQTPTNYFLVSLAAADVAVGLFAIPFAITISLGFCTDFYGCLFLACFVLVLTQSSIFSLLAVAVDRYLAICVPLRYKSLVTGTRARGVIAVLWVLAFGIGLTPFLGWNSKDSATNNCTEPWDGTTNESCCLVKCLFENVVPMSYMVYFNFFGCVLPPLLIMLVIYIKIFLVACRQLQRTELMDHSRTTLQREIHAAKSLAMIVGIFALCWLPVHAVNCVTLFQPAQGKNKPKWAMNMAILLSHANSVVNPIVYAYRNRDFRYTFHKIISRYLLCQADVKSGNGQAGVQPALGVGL

human adenosine A3R [10] = target: T4, human adenosine A3R (Homo sapiens, UniProt P0DMS8); set-up: method as in PMID 32629282; details: cited from earlier work
T4 construct: expressed in transfected cells; host or cells: CHO cells
T4 sequence (P0DMS8 1-318): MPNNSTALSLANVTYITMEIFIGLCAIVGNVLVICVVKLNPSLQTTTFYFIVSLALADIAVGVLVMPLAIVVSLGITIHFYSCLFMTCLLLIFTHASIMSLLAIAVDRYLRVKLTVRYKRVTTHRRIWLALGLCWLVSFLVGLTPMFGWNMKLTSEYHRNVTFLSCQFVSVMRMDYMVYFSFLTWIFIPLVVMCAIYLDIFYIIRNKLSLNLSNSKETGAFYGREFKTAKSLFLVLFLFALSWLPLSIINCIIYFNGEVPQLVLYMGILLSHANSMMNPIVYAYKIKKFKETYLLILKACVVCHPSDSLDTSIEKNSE

human adenosine A2BR [11] = target: T3, human adenosine A2BR; experiment: Radioligand binding at human adenosine A2B receptor vs. [3H]PSB-603; details: for inhibition at 1 µM: CHO cells, read-out: A2BR vs. [³H]PSB-603 % Inhibition ± SEM at 1 µM; for Ki: human recombinant receptor in CHO cells, read-out: A2BR vs. [³H]PSB-603 Ki ± SEM
Experimental: (§1) Affinities for adenosine receptors were evaluated in radioligand binding assays as previously described. Human adenosine receptors were stably expressed in CHO cells. The following radioligands were used: [^3H]2-chloro-N^6-cyclopentyladenosine ([^3H]CCPA) for A1R; [^3H]3-(3-hydroxypropyl)-7-methyl-8-(m-methoxystyryl)-1-propargylxanthine ([^3H]MSX-2) for A2AR; [^3H]8-(4-(4-(4-chlorophenyl)piperazine-1-sulfonyl)phenyl)-1-propylxanthine ([^3H]PSB-603) for A2BR; [^3H]phenyl-8-ethyl-4-methyl-(8R)-4,5,7,8-tetrahydro-1H-imidazo [2,1-i]purine-5-one ([^3H]PSB-11) for A3R. Initially, compounds were tested at a concentration of 1 µM. […] At least three independent experiments were performed. Data were analyzed using GraphPad PRISM version 5.0 or higher (Graph Pad, San Diego, CA, USA). Ki were calculated using the Cheng–Prusoff equation.

human adenosine A3R [12] = target: T4, human adenosine A3R; experiment: Radioligand binding at human adenosine A3 receptor vs. [3H]PSB-11; details: for inhibition at 1 µM: CHO cells, read-out: A3R vs. [H³]PSB-11 % Inhibition ± SEM at 1 µM; for Ki: human recombinant receptor in CHO cells, read-out: A3R vs. [H³]PSB-11 Ki ± SEM
Experimental: as §1

human adenosine A1R [13] = target: T1, human adenosine A1R; experiment: Radioligand binding at human adenosine A1 receptor vs. [3H]CCPA; details: for Ki: human recombinant receptor in CHO cells, read-out: A1R vs. [³H]CCPA Ki ± SEM
Experimental: as §1

human MAO B = target: T5, human MAO B (Homo sapiens, UniProt P27338); experiment: Human MAO B inhibition, fluorometric method; type: biochemical; details: mean of two independent experiments, read-out: % of hMAO B Inhibition at 1 µM
T5 sequence (P27338 1-520): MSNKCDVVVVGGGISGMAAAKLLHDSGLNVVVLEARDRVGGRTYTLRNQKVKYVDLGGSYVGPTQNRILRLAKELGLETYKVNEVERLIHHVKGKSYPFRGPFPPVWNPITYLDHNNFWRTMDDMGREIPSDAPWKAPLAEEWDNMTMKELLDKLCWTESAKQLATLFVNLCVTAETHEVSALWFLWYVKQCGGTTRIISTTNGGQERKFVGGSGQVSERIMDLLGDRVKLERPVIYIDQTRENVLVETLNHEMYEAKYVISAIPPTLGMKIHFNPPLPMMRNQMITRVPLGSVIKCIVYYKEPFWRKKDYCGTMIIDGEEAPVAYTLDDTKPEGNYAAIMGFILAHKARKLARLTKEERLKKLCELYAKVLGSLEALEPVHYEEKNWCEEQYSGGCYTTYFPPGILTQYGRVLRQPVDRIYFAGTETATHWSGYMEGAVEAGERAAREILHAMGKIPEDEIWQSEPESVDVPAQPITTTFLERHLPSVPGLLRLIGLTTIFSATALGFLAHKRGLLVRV
Experimental: The compounds were tested twice in duplicates at a concentration of 1 μM by fluorometric method as previously described. Paratyramine (200 μM) was used as a substrate for the enzyme. Safinamide (1 μM; reversible) and rasagiline (1 μM; irreversible) were used as reference inhibitors.

human adenosine A2AR [14] = target: T2, human adenosine A2AR; experiment: Radioligand binding at human adenosine A2A receptor vs. [3H]MSX-2; details: human recombinant receptor in CHO cells; read-out: A2AR vs. [³H]MSX-2 Ki ± SEM
Experimental: as §1

[15] = selectivity towards other adenosine receptors

Structure (SMILES)	inhibition at 1 µM (human adenosine A2BR [11]) [%]	Ki (human adenosine A2BR [11]) [nM]	inhibition at 1 µM (human adenosine A3R [12]) [%]	Ki (human adenosine A3R [12]) [nM]	Ki (human adenosine A1R [13]) [nM]	inhibition at 1 µM (human MAO B) [%]	Ki (human adenosine A2AR [14]) [nM]	melting point [°C]	also measured
Cn1c(=O)c2c(ncn2C)n(C)c1=O [Caffeine, reference compound]	–	–	–	–	–	–	–	–	Drug Retention [1]: 29.46%; Papp at 5 h, 100 μM ([1]; 100 μM in PBS, 5 h, room temperature, triplicate, read-out: Pe ± SD): 6.57 ± 1.57 ×10⁻⁶ cm/s; Papp at 5 h, 100 μM ([1]; read-out: Permeable): ≥ 1.5 ×10⁻⁶ cm/s
Cn1c(=O)c2c(nc3n2CCCN3CCc2ccc(O)cc2)n(C)c1=O [KD-114]	–	–	–	–	–	–	–	–	Ki [2, 15]: > 1000 nM; reduction of edema volume ([3]; 1st, 2nd and 3rd hour): > 90%; edema at the first hour with the tested compound ([3]; control 64%): 2%; Ki (human adenosine A1R [4]; read-out: hA1R Ki): > 25000 nM; Ki (human adenosine A2AR [5]; read-out: hA2AR Ki): 230 nM
Nc1nc2c(cnn2CCc2ccccc2)c2nc(-c3ccco3)nn12 [SCH-58261]	–	–	–	–	–	–	–	–	effect in LPS-induced inflammation model (in words) [6]: beneficial effects; effect on pro-inflammatory factors (IL-1ß, IL-6, iNOS, TNF alpha) (in words) [7]: caused a decrease in the above-mentioned cytokines
CCn1c(=O)c2c(nc(NCc3cccc(OC)c3F)n2C)n(C)c1=O [compound 1]	–	–	–	–	–	–	–	–	Ki [2, 15]: > 1000 nM; Ki (human adenosine A1R [4]; read-out: hA1R Ki): > 1000 nM; Ki (human adenosine A2AR [5]; read-out: A2AR Ki): 69 nM; inhibition of edema, 2nd hour [8]: 44%; inhibition of edema, 3rd hour [8]: 53%
CCn1c(=O)c2c(nc(NCc3ccccc3Cl)n2C)n(C)c1=O [compound 2]	–	–	–	–	–	–	–	–	Ki [2]: > 1000 nM; A2BR % Inhibition ± SEM at 1 µM (human adenosine A2BR [9]; 1 µM): 44 ± 10%; Ki (human adenosine A2BR [9]; human): > 1000 nM; A1R % Inhibition ± SEM at 1 µM (human adenosine A1R [4]; 1 µM): 22 ± 1%; Ki (human adenosine A1R [4]; read-out: A1R Ki): > 1000 nM; Ki (human adenosine A2AR [5]; read-out: A2AR Ki): 71 ± 6 nM; A3R % Inhibition ± SEM at 1 µM (human adenosine A3R [10]; 1 µM): 14 ± 1%; Ki (human adenosine A3R [10]; human): > 1000 nM
C#CCn1c(=O)c2c(nc(NCc3ccccc3F)n2C)n(C)c1=O [compound 21, 8-((2-Fluorobenzyl)amino)-3,7-dimethyl-1-(prop-2-yn-1-yl)-3,7-dihydro-1H-purine-2,6-dione]	41	> 1000	21	> 1000	353 ± 42	8	287 ± 90	224 to 226	–
C#CCn1c(=O)c2c(nc(NCc3cccc(Cl)c3)n2C)n(C)c1=O [compound 23, 8-((3-Chlorobenzyl)amino)-3,7-dimethyl-1-(prop-2-yn-1-yl)-3,7-dihydro-1H-purine-2,6-dione]	26	> 1000	14	> 1000	334 ± 122	8	126 ± 15	234 to 236	–
C#CCn1c(=O)c2c(nc(NCc3cccc(OC)c3)n2C)n(C)c1=O [compound 25, 8-((3-Methoxybenzyl)amino)-3,7-dimethyl-1-(prop-2-yn-1-yl)-3,7-dihydro-1H-purine-2,6-dione]	35	> 1000	0	> 1000	460 ± 99	11	225 ± 40	217 to 219	–
C#CCn1c(=O)c2c(nc(NCc3ccc(OC)c(OC)c3)n2C)n(C)c1=O [compound 26, 8-((3,4-dimethoxybenzyl)amino)-3,7-dimethyl-1-(prop-2-yn-1-yl)-3,7-dihydro-1H-purine-2,6-dione]	28	> 1000	2	> 1000	> 1000	3	108 ± 22	247 to 249	inhibition at 1 µM (human adenosine A1R [13]; 1 µM, CHO cells, read-out: A1R vs. [³H]CCPA % Inhibition ± SEM at 1 µM): -2%
